Source: US20210386829A1, “COMPOSITIONS AND METHODS FOR MODULATING CGRP SIGNALING TO REGULATE INNATE LYMPHOID CELL INFLAMMATORY RESPONSES” (The Broad Institute, Inc., priority 2018, published 2021)
Several values for one entry are separate records, joined by “and”; a condition that tells them apart may be missing. Equal entries are not always repeated.

Key:
ILC2s = conditions: recent report (Sui et al., 2018); cited from earlier work
lung ILC2s = assay: expression profiles (RNA-seq) of lung ILC2s cultured with CGRP, IL-33 or both; format: cell-based, mouse
Protocol: RNA-Seq. For population (bulk) RNA-seq, sorted ILCs were lysed with RLT Plus buffer and RNA was extracted using the RNeasy Plus Mini Kit (Qiagen). Full-length RNA-seq libraries were prepared as previously described (Singer, M. et al. A Distinct Gene Module for Dysfunction Uncoupled from Activation in Tumor-Infiltrating T Cells. Cell 166, 1500-1511 e1509, doi:10.1016/j.cell.2016.08.052 (2016). and paired-end sequenced (75 bp×2) with a 150 cycle Nextseq 500 high output V2 kit.
Culture of innate lymphoid cells. Sort-purified innate lymphoid cells (ILCs) were cultured under sterile conditions in complete medium in a humidified incubator at 37° C. and 10% CO2. ILCs were plated at a density of 3,000-5,000 ILCs per well in a 96 well round-bottom plate in cell culture medium with 20 ng/ml IL-7. Depending on the experiment, different combinations of 200 ng/ml IL-25, 200 ng/ml IL-33, 1 ug/ml NMU and 100 nM CGRP were added either at start or after overnight culture with 20 ng/ml IL-7. After 6 hours or 3 days, culture supernatant was removed and frozen at −20° C. and ILCs were lysed in Extraction Buffer (PicoPure RNA isolation Kit; Thermo Fisher Scientific), incubated at 42° C. for 30 min and frozen at −80° C.

[1] = system: IL-25+NMU-induced airway inflammation; assay: IL-25+NMU-induced airway inflammation, intranasal co-administration of CGRP; format: in vivo, mouse
Protocol: Cytokine-induced airway inflammation. Mice received nasally 500 ng IL-25, 500 ng IL-33, 20 ug NMU or 6.65 ug CGRP diluted in DPBS for three consecutive days. For nasal administration, mice were lightly anesthetized with Isoflurane (Cat #07-893-1389; Patterson Veterinary). For induction of inflammatory ILC2s, mice received intraperitoneally 500 ng IL-25 for three consecutive days. One day after the last treatment, mice were euthanized and perfused with 8 ml cold PBS via the right heart ventricle. After exposure of the trachea, a small incision was made at the top of the trachea and a curved gavage needle was inserted. Lungs were washed with 1.5 ml cold PBS via the needle and the retrieved bronchoalveolar lavage fluid was centrifuged at 1300 rpm for 5 min at 4 C. After centrifugation, the supernatant was frozen at −20° C. and the cell pellet was resuspended in 250 ul complete medium and stored on ice until flow cytometric analysis. The post-caval lung lobe was transferred into 10% buffered formalin and stored at room temperature until paraffin embedding for histological analysis. The other lung lobes were dissociated using the lung dissociation kit (Cat #130-095-927; Miltenyi Biotec) and automated tissue dissociator (gentleMACS; Miltenyi Biotec) as described above with the adjustment that after running program lung_02, the single cell suspension was centrifuged at 1300 rpm for 5 min at 4° C. and 1 ml of the supernatant was frozen at −20° C. Single-cell suspension was resuspended in complete cell culture medium and stored on ice until further processing.
For cell counts, lung cells were transferred into FACS tubes and stained with 7AAD. Precision Count Beads (Cat #424902; BioLegend) were added according to manufacturer's instructions. Cells and beads were acquired on a BD LSRFortessa (BD Biosciences) and cell numbers were calculated based on number of acquired live (7AAD−) cells and number of acquired beads.
For flow cytometric analysis, lung cells were transferred into a 96 well V-bottom plate and stained with surface antibodies for 20 min at 4° C. in the dark. Cells were washed twice with DPBS containing 2% fetal bovine serum and transferred into 1.2 ml tubes for analysis by flow cytometry. For intracellular cytokine staining, cells were incubated in complete cell culture medium with 50 ng/ml phorbol 12-myristate 13-acetate (Sigma-Aldrich), 1 uM ionomycin (Sigma-Aldrich) and GolgiStop (Cat #554724; BD Biosciences) in a humidified incubator at 37° C. and 10% CO2. After 5 hours, cells were transferred into 96 well V-bottom plate, stained with Fixable Viability Dye eFluor 506 (Cat #65-0866-14; Thermo Fisher) and surface antibodies for 20 min at 4° C. in the dark and washed twice with DPBS containing 2% fetal bovine serum. Then, cells were incubated with BD Cytofix/Cytoperm Buffer (Cat #51-2090KZ; BD Biosciences) for 20 min, followed by a wash with BD Perm/Wash Buffer (Cat #51-2091KZ; BD Biosciences). Subsequently, cells were incubated with antibodies targeting intracellular proteins diluted in BD Perm/Wash Buffer for 20 min and after two wash steps, transferred into 1.2 ml tubes for analysis by flow cytometry. For ki67 staining, cells were stained for surface antibodies as described above, fixed with a solution of Fixation/Permeabilization Concentrate (Cat #00-5123-43; Invitrogen) and Fixation/Perm Diluent (Cat #00-5223-56; Invitrogen) for 20 min, washed with Permeabilization Buffer (Cat #00-8333-56; Invitrogen). Then, cells were incubated with ki67 antibody diluted in Permeabilization Buffer for 20 min, washed and transferred into FACS tubes. Cells were analyzed on a BD LSRFortessa (BD Biosciences) flow cytometer with 5 lasers (355 nm, 405 nm, 488 nm, 561 nm and 640 nm). Data was analyzed using FlowJo v10.5.0 software and cell populations were gated as described previously (Wallrapp 2017).
RNA isolation and cDNA synthesis. […]

Substance: CGRP: neuropeptide calcitonin gene-related peptide (encoded by Calca), ligand of the Ramp1/Calcrl receptor; given at 100 nM in vitro, 6.65 ug nasally
- IL-5 and amphiregulin (Areg) production by ILC2s (ILC2s): enhanced
- differentially expressed genes of CGRP alone shared with CGRP+IL-33 treatment (lung ILC2s; CGRP alone vs CGRP+IL-33): 112 genes
- genes associated with cell cycle progression (Mki67, Birc5, Kdm8) (lung ILC2s; CGRP treatment alone): down-regulated
- number of differentially expressed genes (lung ILC2s; CGRP treatment alone (IL-7+CGRP vs IL-7)): 331 genes
- Il13 and Arg1 expression (effector ILC2 genes) (lung ILC2s; IL-33+CGRP vs IL-33): significantly down-regulated
- genes associated with negative regulation of effector T cell responses (Pdcd1, Havcr2, Lilrb4, Entpd1, Tnfrsf18, FoxP3, Nfil3, Nr3c1, Fgl2) (lung ILC2s; IL-33+CGRP vs IL-33): upregulated
- number of differentially expressed genes up-regulated in the presence of CGRP (lung ILC2s; IL-33+CGRP vs IL-33, 3 days): 635 genes
- number of differentially expressed genes (lung ILC2s; IL-33+CGRP vs IL-33, 3 days, P<0.05, fold change >1.5): > 900 genes and 946 genes
- Ramp3 and Calca expression in ILC2s (lung ILC2s; with CGRP, confirmed by qPCR): upregulated
- lung ILC frequencies and numbers ([1]; IL-25+CGRP vs IL-25, nasal, three consecutive days): no effect
- IL-5 protein in lung tissue and BALF ([1]; IL-25+NMU+CGRP vs IL-25+NMU): non-significant trend towards reduced expression
- IL-13 protein in lung tissue and bronchoalveolar lavage fluid ([1]; IL-25+NMU+CGRP vs IL-25+NMU): reduced
- ILC proliferation (intracellular Ki67) ([1]; IL-25+NMU+CGRP vs IL-25+NMU): significantly decreased
- eosinophil frequency and numbers in the BAL ([1]; IL-25+NMU+CGRP vs IL-25+NMU): towards decreased
- lung ILC frequencies and numbers ([1]; IL-25+NMU+CGRP vs IL-25+NMU): strong reduction
- type 2 cytokine mRNA in lung tissue ([1]; IL-25+NMU+CGRP vs IL-25+NMU): diminished expression
